Here are results for 27 compounds from patent publication US20090042726A1, “Novel Herbicides” (SYNGENTA LIMITED, priority 2005, published 2009).

Molecules are shown by their SMILES.

The experiment deals with Monocotyledonous and dicotyledonous test plants. The experiment in a line: Herbicidal action, application pre-emergence (Example B1). The format is in vivo. To be noted: 1000 g/ha, evaluated after 9 or 13 days; for AGSTE herbicidal action (damage score 0-10): Agrostis-tenius; for AMARE herbicidal action (damage score 0-10): Amaranthus retroflexus; for DIGSA herbicidal action (damage score 0-10): Digitaria sanguinalis; for POATR herbicidal action (damage score 0-10): Poa trivialis; for SETIT herbicidal action (damage score 0-10): Setaria italica. On the set-up: key: 10=total damage to plant; 0=no damage to plant. On the procedure: Monocotyledonous and dicotyledonous test plants were sown in sterilised standard soil in seed trays each having 96 cells. After one day (pre-emergence) under controlled conditions in a climatic chamber (cultivation at 23/17° C., day/night; 13 hours light; 50-60% humidity; after application at 24/19° C., day/night), the plants were treated with an aqueous spray solution of 1000 mg/l of the active ingredient used (including 10% DMSO as solvent). The plants were grown on in the climatic chamber until the test was evaluated (10=total damage to plant, 0=no damage to plant) after 9 or 13 days.

Regarding `Cn1nc(C(F)(F)F)c(C[S+]([O-])C2=NOC(C)(C)C2F)c1OCC(F)(F)F` (single isomer, unassigned) [2.09], the “AGSTE herbicidal action (damage score 0-10)” value (“AGSTE herbicidal action” for short) was determined as 10, the “AMARE herbicidal action (damage score 0-10)” value (“AMARE herbicidal action” below) came to 9, the “DIGSA herbicidal action (damage score 0-10)” value (shortened to “DIGSA herbicidal action”) is on record as 9 and the “POATR herbicidal action (damage score 0-10)” value (“POATR herbicidal action” for short) was 10. For the same compound, the “SETIT herbicidal action (damage score 0-10)” value (“SETIT herbicidal action” below) was found to be 10.

Regarding `COc1ncc(C[S+]([O-])C2=NOC(C)(C)C2F)c(C(F)(F)F)n1` (centres unmarked) [5.02], the “AGSTE herbicidal action” value is reported as 10, the “AMARE herbicidal action” value stood at 10, the “DIGSA herbicidal action” value turned out to be 10 and the “POATR herbicidal action” value is recorded as 10.

Turning to `COCCOc1c(C[S+]([O-])C2=NOC(C)(C)C2F)c(C(F)(F)F)nn1C` (mixture of isomers) [2.58], the “AGSTE herbicidal action” value is 10, the “AMARE herbicidal action” value was 10, the “DIGSA herbicidal action” value is 10 and the “POATR herbicidal action” value worked out at 10.

As to `Cc1nn(C)nc1CS(=O)(=O)C1=NOC(C)(C)C1F` (centres unmarked) [7.04], the “AGSTE herbicidal action” value stood at 10, the “AMARE herbicidal action” value came out at 10, the “DIGSA herbicidal action” value is 10 and the “POATR herbicidal action” value is recorded as 10. In addition, the “SETIT herbicidal action” value came to 9.

Turning to `Cn1nc(C(F)(F)F)c(C[S+]([O-])C2=NOC(C)(C)C2Cl)c1OCC(F)(F)F` (centres unmarked) [Compound No. 2.14, 4-Chloro-5,5-dimethyl-3-[1-methyl-5-(2,2,2-trifluoro-ethoxy)-3-trifluoromethyl-1H-pyrazol-4-ylmethylsulfinyl]-4,5-dihydro-isoxazole], the “AGSTE herbicidal action” value was determined as 10, the “AMARE herbicidal action” value is listed as 9, the “DIGSA herbicidal action” value came out at 9 and the “POATR herbicidal action” value worked out at 10. For the same compound, the “SETIT herbicidal action” value is reported as 9.

On to `Cn1nc(C(F)(F)F)c(C[S+]([O-])C2=NOC(C)(C)C2F)c1OCC(F)(F)F` (single isomer, unassigned) [2.10], for which the “AGSTE herbicidal action” value came to 10, the “AMARE herbicidal action” value turned out to be 8, the “DIGSA herbicidal action” value was found to be 10 and the “POATR herbicidal action” value came to 10. Moreover, the “SETIT herbicidal action” value was 9.

In the case of `CC1(C)ON=C([S+]([O-])Cc2nn(C3CCCC3)nc2C(F)(F)F)C1F` (single isomer, unassigned) [7.12], the “AGSTE herbicidal action” value was 10, the “AMARE herbicidal action” value is given as 10, the “DIGSA herbicidal action” value amounted to 9 and the “POATR herbicidal action” value was 10.

`Cn1nc(C(F)(F)F)c(C[S+]([O-])C2=NOC(C)(C)C2(Cl)Cl)c1OCC(F)(F)F` (centres unmarked) [2.20]: the “AGSTE herbicidal action” value was 5, the “AMARE herbicidal action” value is 4, the “DIGSA herbicidal action” value is 9 and the “POATR herbicidal action” value stood at 8. Besides, the “SETIT herbicidal action” value is 7.

Consider `CCn1ncc(CS(=O)(=O)C2=NOC(C)(C)C2F)n1` (centres unmarked) [7.36], for which the “AGSTE herbicidal action” value is 9, the “AMARE herbicidal action” value stood at 8, the “DIGSA herbicidal action” value was 9 and the “POATR herbicidal action” value is reported as 10.

Consider `Cn1nnc(Br)c1C[S+]([O-])C1=NOC(C)(C)C1F` (mixture of isomers) [11.02], for which the “AGSTE herbicidal action” value is given as 10, the “AMARE herbicidal action” value is listed as 5, the “DIGSA herbicidal action” value is recorded as 9 and the “POATR herbicidal action” value stood at 10.

For `CC1(C)ON=C(S(=O)(=O)C(Cl)c2ccccc2OC(F)(F)F)C1F` (centres unmarked) [Compound No. 1.13, 3-[chloro-(2-trifluoromethoxy-phenyl)-methanesulfonyl]-4-fluoro-5,5-dimethyl-4,5-dihydro-isoxazole], the “AGSTE herbicidal action” value worked out at 10, the “AMARE herbicidal action” value was found to be 9, the “DIGSA herbicidal action” value was determined as 9 and the “POATR herbicidal action” value stood at 10. Moreover, the “SETIT herbicidal action” value stood at 9.

`Cn1nc(C[S+]([O-])C2=NOC(C)(C)C2F)c(C(F)(F)F)n1` (centres unmarked) [7.43]: the “AGSTE herbicidal action” value is 10, the “AMARE herbicidal action” value worked out at 10, the “DIGSA herbicidal action” value came to 10 and the “POATR herbicidal action” value is on record as 10.

Turning to `Cn1nc(OC(F)F)c(CS(=O)(=O)C2=NOC(C)(C)C2F)c1C(F)(F)F` (centres unmarked) [2.31], the “AGSTE herbicidal action” value stood at 10, the “AMARE herbicidal action” value is reported as 10, the “DIGSA herbicidal action” value was determined as 10 and the “POATR herbicidal action” value worked out at 10. Moreover, the “SETIT herbicidal action” value was 10.

For `Cn1nc(C(F)(F)F)cc1C[S+]([O-])C1=NOC(C)(C)C1F` (mixture of isomers) [6.03], the “AGSTE herbicidal action” value was 10, the “AMARE herbicidal action” value was 8, the “DIGSA herbicidal action” value turned out to be 9 and the “POATR herbicidal action” value turned out to be 10.

In the case of `Cn1nc(C(F)(F)F)c(Cl)c1CS(=O)(=O)C1=NOC(C)(C)C1F` (centres unmarked) [6.07], the “AGSTE herbicidal action” value came out at 10, the “AMARE herbicidal action” value was 7, the “DIGSA herbicidal action” value was determined as 9 and the “POATR herbicidal action” value is recorded as 10.

Turning to `COCCn1nc(CS(=O)(=O)C2=NOC(C)(C)C2F)c(C(F)(F)F)n1` (centres unmarked) [7.20], the “AGSTE herbicidal action” value was found to be 10, the “AMARE herbicidal action” value is recorded as 10, the “DIGSA herbicidal action” value was 10 and the “POATR herbicidal action” value turned out to be 10.

`C=CCn1nc(C[S+]([O-])C2=NOC(C)(C)C2F)c(C(F)(F)F)n1` (single isomer, unassigned) [7.09]: the “AGSTE herbicidal action” value is reported as 10, the “AMARE herbicidal action” value is recorded as 10, the “DIGSA herbicidal action” value worked out at 10 and the “POATR herbicidal action” value is 10.

As for `CC(c1c(C(F)(F)F)nn(C)c1OC(F)F)S(=O)(=O)C1=NOC(C)(C)C1F` (mixture of isomers) [Compound No. 2.27], the “AGSTE herbicidal action” value amounted to 10, the “AMARE herbicidal action” value is recorded as 10, the “DIGSA herbicidal action” value worked out at 10 and the “POATR herbicidal action” value amounted to 10. The “SETIT herbicidal action” value is on record as 10.

On to `Cc1nn(C)c(OCC(F)(F)F)c1CS(=O)(=O)C1=NOC(C)(C)C1F` (centres unmarked) [2.63], for which the “AGSTE herbicidal action” value stood at 10, the “AMARE herbicidal action” value was 10, the “DIGSA herbicidal action” value came out at 8 and the “POATR herbicidal action” value was determined as 10.

For `Cn1nc(C(F)(F)F)c(CS(=O)(=O)C2=NOC(C)(C)C2Cl)c1OC(F)F` (centres unmarked) [2.18], the “AGSTE herbicidal action” value stood at 10, the “AMARE herbicidal action” value was found to be 8, the “DIGSA herbicidal action” value is recorded as 5 and the “POATR herbicidal action” value was found to be 9. For the same compound, the “SETIT herbicidal action” value turned out to be 8.

On to `CCn1cc(C[S+]([O-])C2=NOC(C)(C)C2F)c(C(F)(F)F)n1` (mixture of isomers) [2.46], for which the “AGSTE herbicidal action” value worked out at 10, the “AMARE herbicidal action” value was determined as 10, the “DIGSA herbicidal action” value is listed as 9 and the “POATR herbicidal action” value was determined as 10.

Regarding `Cn1nc(C(F)(F)F)c(Cl)c1CSC1=NOC(C)(C)C1F` (centres unmarked) [Compound No. 6.05], the “AGSTE herbicidal action” value is reported as 10, the “AMARE herbicidal action” value is 0, the “DIGSA herbicidal action” value came to 5 and the “POATR herbicidal action” value stood at 4.

For the compound `Cc1nn(C)nc1C[S+]([O-])C1=NOC(C)(C)C1F` (single isomer, unassigned) [7.02], the “AGSTE herbicidal action” value turned out to be 10, the “AMARE herbicidal action” value is 0, the “DIGSA herbicidal action” value was 9 and the “POATR herbicidal action” value came out at 10. Also, the “SETIT herbicidal action” value was determined as 9.

In the case of `Cn1cc(CS(=O)(=O)C2=NOC(C)(C)C2F)c(C(F)(F)F)n1` (centres unmarked) [2.34], the “AGSTE herbicidal action” value came out at 10, the “AMARE herbicidal action” value was 10, the “DIGSA herbicidal action” value was determined as 10 and the “POATR herbicidal action” value was found to be 10. The “SETIT herbicidal action” value came to 9.

For the compound `CCc1nn(C)nc1CSC1=NOC(C)(C)C1F` (centres unmarked) [Compound No. 7.31], the “AGSTE herbicidal action” value was 9, the “AMARE herbicidal action” value was 0, the “DIGSA herbicidal action” value is 7 and the “POATR herbicidal action” value was found to be 0.

`Cc1nc(C[S+]([O-])C2=NOC(C)(C)C2F)n(C)n1` (single isomer, unassigned) [8.03]: the “AGSTE herbicidal action” value is on record as 10, the “AMARE herbicidal action” value was 0, the “DIGSA herbicidal action” value came to 9 and the “POATR herbicidal action” value is given as 8.

For the compound `CCc1nn(C)nc1C[S+]([O-])C1=NOC(C)(C)C1F` (mixture of isomers) [7.32], the “AGSTE herbicidal action” value is on record as 10, the “AMARE herbicidal action” value is listed as 7, the “DIGSA herbicidal action” value was determined as 9 and the “POATR herbicidal action” value was 9.
